One may read the viability as a read-out of living cells in per cent, often relative to untreated cells.

These results are taken from patent US20260365655A1, “NEW USE OF JANUS KINASE (JAK)-DEGRADING AGENT BASED ON PROTEOLYSIS TARGETING CHIMERA (PROTAC)” (SHANGHAI SKIN DISEASE HOSPITAL, priority 2022, published 2026).

In one data set the test system is RAW 264.7 cells. As to the kind of experiment: NO content assay in LPS+IFN-γ induced RAW 264.7 macrophage inflammatory model. The class given is cell-based. The following applies: for NO level versus LPS+IFN-γ model group: 0.05, 0.1, 0.2 g/mL (so in the source), 0.4 and 0.8 μg/mL, 24 h, LPS 0.5 μg/mL + IFN-γ 2 ng/mL; for Inhibition of inflammation: concentration range of 0.05 μg/mL to 0.8 μg/mL; for Concentration of optimal anti-inflammatory effect: tested 0.05 μg/mL to 0.8 μg/mL. The protocol:
(1) Reagents: compound 1: a compound shown by Compound 1 in formula (I); compound 2: a compound shown by Compound 2 in Formula (I); DMEM high-glucose medium: Wuhan Pricella Biotechnology Co., Ltd.; South American FBS and trypsin: Gibco, USA; penicillin-streptomycin: Hyclone, USA; and nitric oxide (NO) assay kit: Beyotime.
(§1) (2) Instruments: CO2 incubator: HERA cell 240; and microplate reader: Thermo Fisher Scientific, USA.
Induction of an RAW 264.7 macrophage inflammatory model with lipopolysaccharide (LPS) and interferon-gamma (IFN-γ): RAW 264.7 cells in a logarithmic growth phase were taken and inoculated in a 96-well cell culture plate at 20×10^3 cells/well, and cultured for 24 h until the cells were adherent. Ablank control group of 0 μg/mL, a model group of 0.5 μg/mL LPS+2 ng/mL IFN-γ, and experimental groups of compounds 1 and 2 at concentrations of 0.05 μg/mL, 0.1 μg/mL, 0.2 μg/mL, 0.4 μg/mL, and 0.8 μg/mL were set. Three replicate wells were set for each group. In the blank control group, cells were incubated with serum-free DMEM. In the LPS+IFN-γ model group, cells were incubated with serum-free DMEM. After 24 h of incubation, morphological changes of cells were observed, and a concentration of NO was determined according to instructions of the NO assay kit.
The data of the present disclosure was processed with the Excel and Graphpad software. The experimental data were tested by one-way ANOVA. The post-hoc multiple comparison was conducted with the LSD. P<0.05 indicated a significant difference.

Data set [1] can be described thus: HaCaT cell viability by CCK-8 assay. The class given is cell-based. The following applies: human, hacat cells. The protocol: (1) Reagents: compound 1: a compound shown by Compound 1 in Formula (I); compound 2: a compound shown by Compound 2 in Formula (I); Dulbecco's Modified Eagle Medium (DMEM) high-glucose medium: Wuhan Pricella Biotechnology Co., Ltd.; South American fetal bovine serum (FBS) and trypsin: Gibco, USA; penicillin-streptomycin: Hyclone, USA; and CCK-8 kit: Beyotime.
as §1
The cultured HaCaT cells were counted under a microscope to be about 2×10^6 cells/mL, then inoculated in a 96-well plate at about 6×10^3 cells/well, and incubated overnight in a 37 °C and 5% CO2 incubator. After cells were adherent, a medium was removed, and 200 μL of each of complete media including compounds 1 and 2 at different concentrations (0.05 μg/mL, 0.1 μg/mL, 0.2 μg/mL, 0.5 μg/mL, 1 μg/mL, 2 μg/mL, 5 μg/mL, 10 μg/mL, and 20 μg/mL) was added to a corresponding well. The 0 μg/mL group was set as a blank control group. Three replicate wells were set for each treatment of the compounds 1 and 2. The plate was incubated in a CO2 incubator for 24 h. 20 μL of CCK-8 reagent was added to each well, and the plate was incubated in a CO2 incubator for 1 h and then placed in the microplate reader to read the absorbance at 450 nm. The test was repeated 3 times, and a mean value was taken. The measured absorbance was substituted into a cell viability calculation formula to calculate the cell viability.
The data of the present disclosure was processed with the Excel and Graphpad software. The experimental data was tested by one-way ANOVA. The post-hoc multiple comparison was conducted with the LSD. P<0.05 indicated a significant difference.
In general terms: Tetrazolium dyes change colour on reduction, which living cells bring about.

As to `N#CC[C@H](C1CCCC1)n1cc(-c2nc(Nc3ccc(C(=O)NCCCCNc4cccc5c4C(=O)N(C4CCC(=O)NC4=O)C5=O)cc3)nc3[nH]ccc23)cn1` (stereo partly drawn) [Compound 1], the “NO level versus LPS+IFN-γ model group” value with RAW 264.7 cells is “reduced”. For the same compound, in the data set with RAW 264.7 cells, the Inhibition of inflammation entry is listed as “could effectively inhibit the inflammation”. In addition, the “Concentration of optimal anti-inflammatory effect” value in the data set with RAW 264.7 cells was 0.4 µg/mL. In addition, the viability at 24 h is 80.5% in data set [1] (0.05 μg/mL); 85.7% in data set [1] (0.10 μg/mL); 90.7% in data set [1] (0.20 μg/mL); 98.3% in data set [1] (0.50 μg/mL); 98.3% in data set [1] (1.00 μg/mL); 93.8% in data set [1] (2.00 μg/mL). Further, the viability at 24 h was found to be 108% in data set [1] (5.00 μg/mL), 110% in data set [1] (10.00 μg/mL) and 80.3% in data set [1] (20.00 μg/mL).

As to `CCS(=O)(=O)N1CC(CC#N)(n2cc(-c3nc(Nc4ccc(C(=O)NCCCCNc5cccc6c5C(=O)N(C5CCC(=O)NC5=O)C6=O)cc4)nc4[nH]ccc34)cn2)C1` (stereo not drawn) [Compound 2], the “NO level versus LPS+IFN-γ model group” value in the data set on RAW 264.7 cells is recorded as “reduced”. For the same compound, the Inhibition of inflammation result in the data set with RAW 264.7 cells is reported as “could effectively inhibit the inflammation”. Further, the “Concentration of optimal anti-inflammatory effect” value in the data set on RAW 264.7 cells was 0.4 µg/mL. In addition, the viability at 24 h in data set [1] (0.05 μg/mL) was 95.5%; in data set [1] (0.10 μg/mL) it was 95.6%; in data set [1] (0.20 μg/mL), 106%; in data set [1] (0.50 μg/mL), 113%; in data set [1] (1.00 μg/mL), 101%; in data set [1] (2.00 μg/mL), 107%. Moreover, the viability at 24 h in data set [1] (5.00 μg/mL) turned out to be 124%; in data set [1] (10.00 μg/mL), 120%; in data set [1] (20.00 μg/mL) it was 93.3%.
